Literature values as cited in patent US11191849B2, “Compositions and methods for delivering messenger RNA” (ARBUTUS BIOPHARMA CORPORATION, priority 2016, dated 2021).

Row | SMILES | log P
1 | CCC(=O)O[C@]1(C(=O)CCl)[C@@H](C)C[C@H]2[C@@H]3CCC4=CC(=O)C=C[C@]4(C)[C@@]3(F)[C@@H](O)C[C@@]21C [Clobetasol, clobetasol-17-propionate] | ~3.5
2 | CCCCCCCCCCCCCCCC(=O)OCC(=O)[C@@]1(O)[C@H](C)C[C@H]2[C@@H]3CCC4=CC(=O)C=C[C@]4(C)[C@@]3(F)[C@@H](O)C[C@@]21C [Dex-P, Dexamethasone 21-palmitate] | ~9
3 | CC(C)C(=O)OCC(=O)[C@@]12O[C@H](C3CCCCC3)O[C@@H]1C[C@H]1[C@@H]3CCC4=CC(=O)C=C[C@]4(C)[C@H]3[C@@H](O)C[C@@]12C [Ciclesonide] | ~5.3
